Reference: patent US20170198318A1, “METHOD OF MANUFACTURING METHOXY-ISOFLAVONES BY BIOTRANSFORMATION AND USE THEREOF” (NATIONAL UNIVERSITY OF TAINAN, priority 2016, published 2017)

How the values were obtained:
[1] = test system: Mouse B16 melanoma cells (4A5); experiment: Cell viability (MTT method) in B16 cells; assay type: cell-based; conditions: under a concentration of 25 μM, with 400 μM IBMX, 2 days
Description: The ranges of non-toxic concentrations of the compounds toward the B16 cells was first determined with the 3-(4,5-dimethylthiazol-2-yl)-2,5-diphenyltetrazolium bromide (MTT) method. Mouse B16 melanoma cells (4A5) was purchased from the Bioresources Collection and Research Center (BCRC, Food Industry Research and Development Institute, Hsinchu, Taiwan). Determinations of cell viability and melanin content were performed as previously reported [Appl. Microbiol. Biotechnol. 2007; 73:1169-1172] and described briefly below. Dulbecco's modified Eagle's medium (DMEM) containing 10% (v/v) fetal bovine serum was used to cultivate mouse B16 cells, which were incubated at 37° C. in a humidified, CO2-controlled (5%) incubator. After 1 day of incubation, the cells were treated with tested drugs in the presence of a melanogenesis stimulation agent (400 μM of 3-isobutyl-1-methylxanthine (IBMX)) for another 2 days. Then, the drug-treated cells were harvested and the cell viability and melanin content were measured according to the previous study [Curr. Pharma. Biotechnol. 2015; 16:1085-1093]. […]
The X axis includes different treatment conditions, and the Y axis of the results represents cell survival rate or relative melanin content. Both of the cell survival rate and the relative melanin content are expressed as percentage of control (% of control). […]

[2] = test system: Mouse B16 melanoma cells (4A5); experiment: Melanin content / inhibition of melanogenesis in IBMX-stimulated B16 cells; assay type: cell-based
Description: The ranges of non-toxic concentrations of the compounds toward the B16 cells was first determined with the 3-(4,5-dimethylthiazol-2-yl)-2,5-diphenyltetrazolium bromide (MTT) method. Mouse B16 melanoma cells (4A5) was purchased from the Bioresources Collection and Research Center (BCRC, Food Industry Research and Development Institute, Hsinchu, Taiwan). Determinations of cell viability and melanin content were performed as previously reported [Appl. Microbiol. Biotechnol. 2007; 73:1169-1172] and described briefly below. Dulbecco's modified Eagle's medium (DMEM) containing 10% (v/v) fetal bovine serum was used to cultivate mouse B16 cells, which were incubated at 37° C. in a humidified, CO2-controlled (5%) incubator. After 1 day of incubation, the cells were treated with tested drugs in the presence of a melanogenesis stimulation agent (400 μM of 3-isobutyl-1-methylxanthine (IBMX)) for another 2 days. Then, the drug-treated cells were harvested and the cell viability and melanin content were measured according to the previous study [Curr. Pharma. Biotechnol. 2015; 16:1085-1093]. In this experiment, cells only treated with IBXM is used as a negative control and cells treated with 20 μM danazol is used as a positive control.
The X axis includes different treatment conditions, and the Y axis of the results represents cell survival rate or relative melanin content. Both of the cell survival rate and the relative melanin content are expressed as percentage of control (% of control). […] Accordingly, the 25 μM was used as the maximum concentration in the determination of the inhibition of melanogenesis.
Pharm. Res. 2010; 33:1959-19].

melanogenesis = conditions: Arch. Pharm. Res. 2010; cited from earlier work
[3] = non-toxic concentrations, 400 μM IBMX, 2 days

SMILES	cytotoxicity (cell survival rate) [1]	inhibition of melanogenesis [2, 3]	melanogenesis inhibition (previously identified) (melanogenesis)	inhibition of melanogenesis ([2]; 6.25 μM and 25 μM, compared with the control group)	activity at 25 µM ([2]; Mus musculus, 48 h, 25 μM, 400 μM IBMX, 2 days, read-out: melanin content (% of control)) [%]	inhibition of melanogenesis compared with positive control danazol ([2]; danazol 20 μM)	inhibition of melanogenesis ([2]; non-toxic concentrations, 400 μM IBMX, 2 days, listed as 7,4′-dihydroxy-8-methoxy-isoflavone)
COc1ccc2c(=O)c(-c3ccc(O)cc3)coc2c1O [compound (2), 8,4′-dihydroxy-7-methoxy-isoflavone]	did not exhibit cytotoxicity	dose-dependently inhibited melanogenesis					
C#C[C@]1(O)CC[C@H]2[C@@H]3CCC4=Cc5oncc5C[C@]4(C)[C@H]3CC[C@@]21C [danazol]			potent melanogenesis inhibitor				
COc1c(O)ccc2c(=O)c(-c3ccc(O)cc3)coc12 [compound (1), 7,4′-dihydroxy-8-methoxy-isoflavone]	did not exhibit cytotoxicity	dose-dependently inhibited melanogenesis		show inhibition of melanogenesis	63.5	greater than that produced by danazol	inhibitory effect on melanogenesis
